Measured values as given in PubChem BioAssay AID1996.
Values after ≈ are worked out from the molar mass of the structure shown.

Details: buffer; pH 7.4; 200.0 µM

SMILES | solubility kinetic
Cc1ccccc1C(=O)OC(C)CN1CCN(C)CC1.Cl (configuration not stated) | > 46.9 µg/mL
O=C(CSc1nc2ccccc2c(=O)[nH]1)Nc1ccccc1O | 3.8 µg/mL (≈ 11.6 µM)
COc1ccc(Cl)cc1NC(=S)NCc1cccs1 | 37.3 µg/mL (≈ 119 µM)
CCOC(=O)CNc1nc(Cl)nc(Nc2ccc(C)cc2)n1 | 0.5 µg/mL (≈ 1.55 µM)
Nc1ccccc1N=Cc1ccc(-c2cccc(Cl)c2)o1 | < 0.3 µg/mL
COc1ccc(C(=O)c2cnc[nH]2)cc1OC | 33 µg/mL (≈ 142 µM)
Cc1cc(C)nc(NC(=O)c2ccc(Br)cc2)n1 | > 45.9 µg/mL
Nc1ccc2nc(SCC(=O)N3CCOCC3)sc2c1 | > 46.4 µg/mL
COc1ccc(OCCn2cnc(Cl)c2Cl)cc1 | 41.1 µg/mL (≈ 143 µM)
CCOC1=CC(=O)N(Cc2ccccc2)C1 | > 32.6 µg/mL
O=[N+]([O-])c1ccc(O)c(C(C#Cc2ccccc2)N2CCOCC2)c1 (configuration not stated) | 12.9 µg/mL (≈ 38.1 µM)
CCC(=O)N(Cc1cc(=O)[nH]c2ccccc12)c1ccc(OC)cc1 | 47.1 µg/mL (≈ 140 µM)
COc1ccccc1OCCNC(=O)c1ccc2c(c1)CCC2 | 42.2 µg/mL (≈ 136 µM)
O=C(Nc1ccccc1C(=O)NC1CC1)c1ccc([N+](=O)[O-])o1 | > 47.3 µg/mL
O=C(N/C(=C\c1ccco1)C(=O)N1CCOCC1)c1ccco1 | > 47.4 µg/mL
S=C(NCc1ccccc1)NCc1ccco1 | 28.2 µg/mL (≈ 114 µM)
O=C(c1c(Cl)cccc1Cl)N1CCN(c2cccc3[nH]ccc23)CC1 | 4.8 µg/mL (≈ 12.8 µM)
NC(=O)C1CCN(C(=O)c2cc(Cl)c3c(c2)OCCO3)CC1 | > 48.7 µg/mL
O=C(OCc1cccc(C(F)(F)F)c1)c1ccc[nH]c1=O | > 44.6 µg/mL
CN(C)C(C)(C)/C=C/C(O)(c1ccccc1)c1ccccc1 | 43 µg/mL (≈ 146 µM)
CCc1cc2c(Nc3ccc(O)cc3)nc(C)nc2s1.Cl | 13.4 µg/mL
FC(F)(F)c1ccccc1-n1c(-c2cnccn2)n[nH]c1=S | > 48.5 µg/mL
CCN(C(=O)COC(=O)CCc1ccccc1)c1ccccc1 | 44.3 µg/mL (≈ 142 µM)
CN(C)C(=S)Nc1cccc(C(F)(F)F)c1 | 29.7 µg/mL (≈ 120 µM)
Cc1nc(N)nc(COc2ccccc2)n1 | > 32.4 µg/mL

SMILES | solubility kinetic
Cc1ccc(NC(=O)Nc2ccon2)cc1 | > 32.6 µg/mL
Cc1nc2c3cc(Cl)ccc3n(CCN3CCOCC3)c2s1 | 7.7 µg/mL (≈ 22.9 µM)
O=C(Nc1ccc(F)cc1F)c1ccc2c(c1)OCCO2 | 14 µg/mL (≈ 48.1 µM)
Cc1ccsc1C(=O)NNC(=S)NC1CCCCC1 | > 44.6 µg/mL
O=C(NC(=S)NC1CCCCC1)c1ccc(F)cc1 | 2.1 µg/mL (≈ 7.49 µM)
CC(=O)Nc1ccc(C2C(=O)c3ccccc3C2=O)cc1 | 39 µg/mL (≈ 140 µM)
Cc1noc(C)c1COC(=O)c1csc2c1CCC(C)C2 (configuration not stated) | 1.4 µg/mL (≈ 4.58 µM)
Cc1ccc(NC(=S)NC(=O)C2CC2)c(C)c1 | 5.9 µg/mL (≈ 23.8 µM)
CC(C)Cn1c(N)c(C(=O)COC(=O)c2cccn2C)c(=O)n(C)c1=O | > 54.4 µg/mL
COC(=O)C[n+]1cccc2ccccc21.[Cl-] | > 35.7 µg/mL
N/C(=N\OC(=O)c1ccc(Cl)cc1[N+](=O)[O-])c1cccnc1 | 12.5 µg/mL (≈ 39 µM)
Cc1nc([N+](=O)[O-])cn1CC(=O)c1ccccc1 | 31.5 µg/mL (≈ 128 µM)
O=C(CN1C(=O)NC(c2ccccc2)(c2ccccc2)C1=O)Nc1ccc(N2CCOCC2)cc1 | 2.6 µg/mL (≈ 5.53 µM)
N#Cc1cc2c(=O)n3ccccc3nc2n(-c2ccc(Cl)cc2)c1=O | 1.4 µg/mL (≈ 4.01 µM)
CCn1c(NC(C)=O)c(-c2ccccc2Cl)c(=O)c2ccccc21 | 49.5 µg/mL (≈ 145 µM)
CCOc1ccc(NC(=O)COc2ccc(S(=O)(=O)N3CCOCC3)cc2)cc1 | 2.9 µg/mL (≈ 6.9 µM)
O=C(NC1CCCCC1)c1cc(-c2ccccc2Cl)on1 | < 0.3 µg/mL
O=S(=O)(Nc1ccc(-c2cn3ccccc3n2)cc1)c1ccccc1 | 1.5 µg/mL (≈ 4.29 µM)
CCn1cc([N+](=O)[O-])c(C(=O)N2CCCc3ccccc32)n1 | > 45 µg/mL
Cc1c(C)n(C)c2ccc(C(=O)NCCN3CCOCC3)cc12 | > 47.3 µg/mL
COc1ccc(NC(=O)CC(C)n2ccnc2)cc1 (configuration not stated) | > 38.9 µg/mL
Cc1cccc2c1NC1(CCCC1)CC2C.Cl (configuration not stated) | < 0.5 µg/mL
O=C(Nc1cc(Cl)ccc1O)c1cc(-c2ccco2)on1 | 1.4 µg/mL (≈ 4.59 µM)
COc1ccc([N+](=O)[O-])cc1NC(=O)C1CCCNC1=O (configuration not stated) | 19.1 µg/mL (≈ 65.1 µM)
CCCCn1c(Nc2ccc(OC)cc2)nc2ccccc21 | 0.6 µg/mL (≈ 2.03 µM)

SMILES | solubility kinetic
COc1cc2ccccc2cc1C(=O)N1CCN(C(C)=O)CC1 | 46.6 µg/mL (≈ 149 µM)
Cc1ccc2[nH]c(CCN(C)C)c(CN3CCOCC3)c2c1 | > 45.2 µg/mL
Cn1cccc1-c1nc2ccccc2n1C | > 31.7 µg/mL
Nc1ccc(-c2nc3cc(N)ccc3n2CCO)cc1 | > 40.2 µg/mL
COc1ccc(/C(C)=N/N2C(C)CCCC2C)c(OC)c1 (configuration not stated) | > 43.6 µg/mL
NC(=O)c1ccc(NC(=O)COC(=O)CCN2C(=O)c3ccccc3C2=O)cc1 | > 59.3 µg/mL
CC(=O)NCc1cc(-c2ccc(Cl)cc2)no1 | 37.2 µg/mL (≈ 148 µM)
CCC(=O)Nc1ccc2c(c1)nc(CCN1CCCCC1)n2C | 43.2 µg/mL (≈ 137 µM)
CCC1(C)SC(N)=NN1C(C)=O (configuration not stated) | > 28.1 µg/mL
CCOC(=O)/C=C(C)\C=C\c1c[nH]c2ccccc12 | 12.5 µg/mL (≈ 49 µM)
COc1ccc(NC(=O)Nc2cnccn2)cc1 | 8.1 µg/mL (≈ 33.2 µM)
CC(NC(=O)c1ccc(Br)o1)C1CC2CCC1C2 (configuration not stated) | 29.3 µg/mL (≈ 93.8 µM)
c1ccc(-c2csc(-c3cccnc3)n2)cc1 | 8.5 µg/mL (≈ 35.7 µM)
Cc1c(C)[n+](=O)c2c(n1[O-])C(Br)CCC2Br (configuration not stated) | > 52.8 µg/mL
COc1cccc(NC(=O)CC(=O)c2ccccc2)c1 | > 40.4 µg/mL
CCOC(=O)c1ccc(NCCOC)c([N+](=O)[O-])c1 | 33.2 µg/mL (≈ 124 µM)
Cc1ccc(C2N=C(N)Nc3nc(=O)c4ccccc4n32)cc1 (configuration not stated) | 3.1 µg/mL (≈ 10.2 µM)
COC(=O)[C@H](CCSC)NC(=O)Nc1cccc(Br)c1 | > 54.2 µg/mL
O=C(COc1ccc([N+](=O)[O-])cc1)NCCc1nc2ccccc2[nH]1 | 8.5 µg/mL (≈ 25 µM)
CC(C)(C)NC(=O)NCCc1ccccc1 | 30 µg/mL (≈ 136 µM)
CN1C(=O)[C@H](Cc2ccc([N+](=O)[O-])cc2)NC1=S | 28.1 µg/mL (≈ 106 µM)
Cc1ccc(S(=O)(=O)N2CC=C(C(=O)NCCC(C)C)CC2)cc1 | 41.7 µg/mL (≈ 119 µM)
CCOc1ncccc1C(=O)OCC(=O)N1CCC(C)CC1 | > 46 µg/mL
S=c1ccc2ccccc2[nH]1 | 22.6 µg/mL (≈ 140 µM)
Cn1cc(C(=O)NC2CC2)c2ccccc21 | 31.9 µg/mL (≈ 149 µM)

SMILES | solubility kinetic
Cc1cc(C(=O)Nc2cccc3ccccc23)co1 | 33 µg/mL (≈ 131 µM)
CCN(C(=O)COC(=O)c1ccc[nH]c1=O)c1cccc2ccccc12 | > 52.6 µg/mL
Cc1cc2cc(C#N)c(N3CCOCC3)nc2cc1Cl | 0.5 µg/mL (≈ 1.74 µM)
CC(C)c1ccc(NC(=O)CC2Oc3ccccc3NC2=O)cc1 (configuration not stated) | 1.3 µg/mL (≈ 4.01 µM)
O=C(NCc1cccnc1)Nc1ccccc1Cl | > 39.3 µg/mL
Cc1ncc(CN2CCCC(C(=O)c3sccc3C)C2)s1 (configuration not stated) | 37.4 µg/mL (≈ 117 µM)
COC(=O)C1Cc2ccccc2CN1S(=O)(=O)c1ccc(F)cc1 (configuration not stated) | 35.4 µg/mL (≈ 101 µM)
COc1cccc(CC(=O)Nc2ccc(S(=O)(=O)N3CCCCC3)cc2)c1 | 10.1 µg/mL (≈ 26 µM)
COc1ccccc1CC(=O)NCC(c1ccco1)N1CCCCC1 (configuration not stated) | > 51.4 µg/mL
COc1ccc(S(=O)(=O)N2CN3CCN(C3)C2)cc1 | > 42.5 µg/mL
Cc1ccccc1Nc1nc(N)nc(CSc2n[nH]c(N)n2)n1 | > 49.4 µg/mL
CC(Sc1nc2sccc2c(=O)n1-c1ccccc1)C(N)=O (configuration not stated) | 43.5 µg/mL (≈ 131 µM)
C[C@@H](NC(=O)[C@@H]1Cc2ccccc2CN1)C(=O)NC1CCCC1 | > 47.3 µg/mL
Nc1cc(=O)[nH]c(SCC(=O)NC2CCCCCCC2)n1 | > 46.6 µg/mL
CCN(CC)CCn1c(C)nc2ccccc21.Cl | 40.6 µg/mL
O=C(c1cc(S(=O)(=O)N2CCOCC2)c(Cl)cc1Cl)N1CCN(S(=O)(=O)c2cccc(F)c2)CC1 | 20.8 µg/mL (≈ 36.7 µM)
COCCCNC(=O)c1ccccc1-c1cc(C)no1 | 32.6 µg/mL (≈ 119 µM)
N#Cc1c(Cl)nc2c(c1C#N)CCCC2 | > 32.6 µg/mL
CCN(CCS(=O)(=O)c1ccc(Cl)cc1)Cc1nc2ccccc2c(=O)[nH]1 | > 60.9 µg/mL
CNC(=S)Nc1cccc(S(=O)(=O)NCc2ccco2)c1 | > 48.8 µg/mL
CCCCn1c(O)c(C(C)=Nc2ccc3c(c2)CCC3)c(=O)[nH]c1=O | < 0.2 µg/mL
Oc1ccc2ccccc2c1C=NCc1ccccc1 | 10.8 µg/mL (≈ 41.3 µM)
COc1ccccc1CCC(=O)NCCCn1ccc2ccccc21 | 27.2 µg/mL (≈ 80.8 µM)
COc1ccc(OC(=O)NCCc2ccccc2)cc1 | 24.3 µg/mL (≈ 89.6 µM)
O=C(Nc1cccc(S(=O)(=O)N2CCOCC2)c1)c1cc(=O)[nH]c2ccccc12 | 9.9 µg/mL (≈ 23.9 µM)

SMILES | solubility kinetic
Cc1ccc(NC(=O)Nc2cnccn2)c(C)c1 | 2.2 µg/mL (≈ 9.08 µM)
CC(OC(=O)c1cccnc1)C(=O)Nc1ccc2c(c1)OCO2 (configuration not stated) | 44 µg/mL (≈ 140 µM)
CCc1ccc(OC)c(-c2csc(N)n2)c1 | > 35.1 µg/mL
CCOC(=O)c1cc2c(ccn2C)n1Cc1ccccc1Cl | < 0.3 µg/mL
O=c1ccc(C(F)(F)F)cn1Cc1cc(=O)n2ccsc2n1 | 44.2 µg/mL (≈ 135 µM)
COc1ccc(Br)c(C(=O)OCC(=O)NC(=O)NC2CCCC2)c1 | 19.5 µg/mL (≈ 48.8 µM)
COc1ccc(-c2cc(C(=O)Nc3cc(C)on3)no2)cc1 | < 0.2 µg/mL
OCCOCCOc1cccc2[nH]ccc12 | 25.9 µg/mL (≈ 117 µM)
CC1C(=O)N2CCCc3cc(NS(=O)(=O)c4ccc(F)cc4)cc1c32 (configuration not stated) | > 54.1 µg/mL
O=C(O)CNS(=O)(=O)c1ccc2[nH]c(=O)c(=O)[nH]c2c1 | > 44.9 µg/mL
Cc1noc(C)c1C(=O)OCC(=O)NCCc1ccc(S(N)(=O)=O)cc1 | > 57.2 µg/mL
CSc1ccc(S(=O)(=O)N2CCC(C(=O)NCc3ccccn3)CC2)cc1 | 49.9 µg/mL (≈ 123 µM)
CCOC(=O)c1c(NC(=O)C2CC2)sc2c1CC(C)(C)OC2 | < 0.7 µg/mL
CC1=CC(C)(C)N(C(=O)CN2C(=O)CCC2=O)c2ccccc21 | > 46.9 µg/mL
COc1ccc(C)cc1S(=O)(=O)Nc1ccc2c(c1)OCCO2 | 4.1 µg/mL (≈ 12.2 µM)
Cc1noc(C)c1C(=O)Nc1nccs1 | > 33.5 µg/mL
Cc1cc(NC(=O)c2ccc(C)c(C)c2)no1 | 3.6 µg/mL (≈ 15.6 µM)
C/C(=N\O)C(C)(C)Nc1ccccc1F | 28.1 µg/mL (≈ 134 µM)
CC(C)(C)c1ccc(NC(=O)CCNC(=O)c2ccco2)cc1 | > 47.2 µg/mL
CN(C)c1cccc(NC(=O)c2ccco2)c1 | > 34.5 µg/mL
O=C(COC(=O)/C=C/c1ccc(F)cc1)NC1CC1 | 28.8 µg/mL (≈ 109 µM)
COc1ccc2[nH]cc(C(=O)CN3CC(C)CC(C)C3)c2c1 (configuration not stated) | > 45.1 µg/mL
